Columns and labels:
[1] = system: primary human hepatocytes in micropatterned co-cultures (MPCCs); assay: Hepatocyte island area (phase contrast) and polarization (CDCFDA bile canaliculi staining) in MPCCs; format: cell-based; details: metformin treated versus non-starved control MPCCs
[2] = system: 3T3-J2 fibroblasts; assay: Fibroblast density in MPCCs, live cell imaging of nuclei (Hoechst 33342); format: cell-based, murine; details: metformin treated MPCCs, 4 weeks of culture
[3] = system: primary human hepatocytes in micropatterned co-cultures (MPCCs)

| SMILES | TC50 values for albumin production, non-starved cells compared with starved cells [3] | TC50 values for urea production, non-starved cells compared with starved cells [3] | identified as toxic (albumin or urea below 50% of DMSO control) [3] | other results |
| --- | --- | --- | --- | --- |
| CN(C)C(=N)N=C(N)N [metformin] |  |  |  | hepatocyte island area [1]: not significantly higher; hepatocyte polarization [1]: not significantly higher; fibroblast numbers [2]: did not change |
| Cc1c(C)c2c(c(C)c1O)CCC(C)(COc1ccc(CC3SC(=O)NC3=O)cc1)O2 (stereo not drawn) [troglitazone] | similar | similar |  |  |
| C[C@]12C=CC(=O)C=C1CC[C@@H]1[C@@H]2C(=O)C[C@@]2(C)[C@H]1CC[C@]2(O)C(=O)CO [prednisone] |  |  | toxic |  |
| CN1C(C(=O)Nc2ccccn2)=C(O)c2ccccc2S1(=O)=O [piroxicam] | similar | similar |  |  |
| Clc1ccc(COC(Cn2ccnc2)c2ccc(Cl)cc2Cl)c(Cl)c1 (stereo not drawn) [miconazole] |  |  | toxic |  |
